Experimental data published in US11965122B2, “Method for visually enhancing the experience of an audience during a performance” (PROLUME, LTD., priority 2012, dated 2024).

How the values were obtained:
[1] = system: calcium activated photoprotein (CAP); conditions: cited from earlier work; for RLC*: relative to native = 1.00; for Relative Intensity †: relative to native = 1
[2] = system: Rabbit conjunctiva; experiment: Coelenterazine applied directly in Rabbit conjunctiva; assay type: in vivo; conditions: multiple sets applied directly in Rabbit conjunctiva, even at high concentrations
Description: Denuded and scratched corneal surfaces should release more calcium then a sealed intact healthy cornea and a CAP may be used alone or in conjunction with fluorescein dye to reveal the exact location of the foreign body or severity of the ocular corneal scratch.

[3] = system: Renilla muelleri Luciferase; experiment: Luminescent activity of Renilla muelleri Luciferase with Coelenterazine analogues; assay type: biochemical; conditions: integrated over 10 sec
Description: FIG. 21 is luminescent activity of Renilla muelleri Luciferase with methoxy eCTZ and methoxy eCTZf.

[4] = Brightness of ultraviolet producing Coelenterazine analog
Description: Diagnosis of conjunctiva pathology and corneal scratches and other acute ocular emergencies such as foreign objects is best performed using an ultraviolet lamp and fluorescein dye. However there are situations, such as camping, or in poorer nations where electricity and ultraviolet lamps are not available. Another embodiment of this invention is a kit containing fluorescein dye, and a CARP manufactured using a ultraviolet producing Coelenterazine analog such as 400a or better because it is much brighter, is methoxy-eCoelenterazine analog contained and stabilized within a freeze dried CARP which can be used for eye examinations in the field.

Compound	Half-Rise Time ‡ [1] [ms]	RLC* [1]	Relative Intensity † [1]	ocular injury [2]	duration of light emission ([1]; CAP manufactured with the analog, delayed spring-opening, over tens of minutes)	light-output relative to methoxy eCTZf [3]	brightness compared with 400a [4]
Oc1ccc(Cc2nc3c(Cc4ccccc4)nc(-c4ccc(O)cc4)cn3c2O)cc1 [Coelenterazine]	6 to 30	1.00	1	failed to produce any ocular injury	–	–	–
O=c1c(Cc2ccc(O)cc2)nc2c(CC3CCCC3)[nH]c(-c3ccc(O)cc3)cn1-2 [cp]	2 to 5	0.63	28	–	–	–	–
O=c1c(Cc2ccc(F)cc2)nc2c(Cc3ccccc3)[nH]c(-c3ccc(O)cc3)cn1-2 [f]	6 to 30	0.80	20	–	–	–	–
O=c1c(Cc2ccccc2)nc2c(Cc3ccccc3)[nH]c(-c3ccc(O)cc3)cn1-2 [h]	6 to 30	0.75	16	–	–	–	–
O=c1c(Cc2ccccc2)nc2c(CC3CCCC3)[nH]c(-c3ccc(O)cc3)cn1-2 [hcp]	2 to 5	0.65	500	–	–	–	–
Coelenterazine-Iodide	–	–	–	–	prolongs light emission	–	–
Methoxy-e-Coelenterazine [Methoxy eCTZ]	–	–	–	–	–	approx. two-fold	much brighter
